The text below walks through data of patent publication US20050090522A1 (priority 2001, published 2005).

In one test the test system is HIV-1. The experiment in a line: HIV-1 single-round infectious luciferase reporter virus (pseudotype) assay in HeLa CD4 CCR5 cells. Format: cell-based. To be noted: Human immunodeficiency virus 1, HeLa-CD4/CCR5, read-out: Average % inhibition at 10 μM. How it is done:
• Virus production—Human embryonic Kidney cell line, 293, propagated in Dulbecco's Modified Eagle Medium (Life Technologies, Gaithersburg, Md.) containing 10% fetal Bovine serum (FBS, Sigma, St. Louis, Mo.). • Virus infection—Human epithelial cell line, HeLa, expressing the HIV-1 receptors CD4 and CCR^5 was propagated in Dulbecco's Modified Eagle Medium (Life Technologies, Gaithersburg, Md.) containing 10% fetal Bovine serum (FBS, Sigma, St. Louis, Mo.) and supplemented with 0.2 mg/mL Geneticin (Life Technologies, Gaithersburg, Md.) and 0.4 mg/mL Zeocin (Invitrogen, Carlsbad, Calif.). […] Transfections were performed using lipofectAMINE PLUS reagent as described by the manufacturer (Life Technologies, Gaithersburg, Md.). Experiment • 1. Compound was added to HeLa CD4 CCR5 cells plated in 96 well plates at a cell density of 5×10^4 cells per well in 100 μl Dulbecco's Modified Eagle Medium containing 10% fetal Bovine serum at a concentration of […]. • 2. 100 μl of single-round infectious reporter virus in Dulbecco's Modified Eagle Medium was then added to the plated cells and compound at an approximate multiplicity of infection (MOI) of 0.01, resulting in a final volume of 200 μl per well and a final compound concentration of <10 μM. • 3. Samples were harvested 72 h after infection. • 4. Viral infection was monitored by measuring luciferase expression from viral DNA in the infected cells using a luciferase reporter gene assay kit (Roche Molecular Biochemicals, Indianapolis, Ind.). Infected cell supernatants were removed and 50 μl of Dulbecco's Modified Eagle Medium (without phenol red) and 50 μl of luciferase assay reagent reconstituted as described by the manufacturer (Roche Molecular Biochemicals, Indianapolis, Ind.) was added per well. Luciferase activity was then quantified by measuring luminescence using a Wallac microbeta scintillation counter. • 5. […] An EC50 provides a method for comparing the antiviral potency of the compounds of this invention. The effective concentration for fifty percent inhibition (EC50) was calculated with the Microsoft Excel Xlfit curve fitting software. For each compound, curves were generated from percent inhibition calculated at 10 different concentrations by using a four paramenter logistic model (model 205). Table 1 is the key for the data in Tables 2-4. Cytoxicity assays were conducted with the same HeLa using methodology well known in the art.
In Table 5, X2, X4 etc. indicates the point of attachment. […] The data at 10 μM was calculated in the following manner:
For compounds tested at concentrations less than 10 μM, the percent inhibition at 10 μM was determined by extrapolation using the XLfit curve fitting feature of the Microsoft Excel spreadsheet software. Curves were obtained from 10 data points (% inhibition determined at 10 concentrations of compound) by using a four parameter logistic model (XLfit model 205: y=A+((B−A)/(I+((C/x)^D))), where, A=minimum y, B=maximum y, C=logEC50, D=slope factor, and x and y are known data values. Extrapolations were performed with the A and B parameters unlocked. […]
Consider `C[C@@H]1CN(C(=O)c2ccccc2)CCN1C(=O)C(=O)c1c[nH]c2c(-c3ccc(F)cc3)nccc12` [Example 1, 1-benzoyl-3-(R)-methyl-4-[(7-(4-fluorophenyl)-6-azaindol-3-yl)-oxoacetyl]-piperazine], for which the inhibition (in general, the drop in the measured response relative to a control, in per cent) at 10 µM came out at 56%.

Still in this test, the particulars now being: Human immunodeficiency virus 1, HeLa-CD4/CCR5, read-out: EC50 Group from TABLE 1, HeLa CD4 CCR5 cells, single-round infectious luciferase reporter virus.
Consider `COc1cnc(-n2ccc(COC(=O)CC(C)(C)C(=O)O)n2)c2[nH]cc(C(=O)C(=O)N3CCN(C(=O)c4ccccc4)[C@H](C)C3)c12` (stereo in doubt) [Example 295, 2,2-Dimethyl-succinic acid 4-(1-{3-[2-(4-benzoyl-3-methyl-piperazin-1-yl)-2-oxo-acetyl]-4-methoxy-1H-pyrrolo[2,3-c]pyridin-7-yl}-1H-pyrazol-3-ylmethyl) ester], for which the EC50 (usually the concentration at which the effect is half-maximal) is below 1 µM.
The same measure, in the same setting: then `C[C@@H]1CN(C(=O)c2ccccc2)CCN1C(=O)C(=O)c1c[nH]c2c(-c3cncc(NC(=O)C4OC4C(=O)O)n3)nccc12` (stereo in doubt) [Example 296, 3-(6-{3-[2-(4-Benzoyl-2-methyl-piperazin-1-yl)-2-oxo-acetyl]-1H-pyrrolo[2,3-c]pyridin-7-yl}-pyrazin-2-ylcarbamoyl)-oxirane-2-carboxylic acid], with below 1 µM; and `C[C@@H]1CN(C(=O)c2ccccc2)CCN1C(=O)C(=O)c1c[nH]c2c(-c3cccc(NC(=O)C4OC4C(=O)O)n3)nccc12` (stereo in doubt) [Example 297, 3-(6-{3-[2-(4-Benzoyl-2-methyl-piperazin-1-yl)-2-oxo-acetyl]-1H-pyrrolo[2,3-c]pyridin-7-yl}-pyridin-2-ylcarbamoyl)-oxirane-2-carboxylic acid], with below 1 µM; and `C[C@@H]1CN(C(=O)c2ccccc2)CCN1C(=O)C(=O)c1c[nH]c2c(-c3ccc(F)cc3)nccc12` [Example 1, 1-benzoyl-3-(R)-methyl-4-[(7-(4-fluorophenyl)-6-azaindol-3-yl)-oxoacetyl]-piperazine], with below 1 µM.
The same measure, in the same setting: then `O=C(C(=O)N1CCN(C(=O)c2ccccc2)CC1)c1c[nH]c2c(-c3ccc(Cl)cc3)nccc12` [Example 2, 1-benzoyl-4-[(7-(4-chlorophenyl)-6-azaindol-3-yl)-oxoacetyl]piperazine], with below 1 µM.
Same read-out and setting: then `O=C(O)c1ccc(-c2nccc3c(C(=O)C(=O)N4CCN(C(=O)c5ccccc5)CC4)c[nH]c23)cc1` [Example 4, 1-benzoyl-4-[(7-(4-carboxy-phenyl)-6-azaindol-3-yl)-oxoacetyl]piperazine], with below 1 µM; and `CC1CN(C(=O)c2ccccc2)CCN1C(=O)C(=O)c1c[nH]c2c(-c3ccc4c(c3)OCO4)nccc12` (centres unmarked) [Example 5, 1-benzoyl-3-methyl-4-[(7-(3,4-methylenedioxyphenyl)-6-azaindol-3-yl)-oxoacetyl]piperazine], with below 1 µM; and `C[C@@H]1CN(C(=O)c2ccccc2)CCN1C(=O)C(=O)c1c[nH]c2c(-c3ccco3)nccc12` [Example 6, 1-benzoyl-3-®-methyl-4-[(7-(furan-2-yl)-6-azaindol-3-yl)-oxoacetyl]piperazine], with below 1 µM.
Take `O=C(C(=O)N1CCN(C(=O)c2ccccc2)CC1)c1c[nH]c2c(-c3ccco3)nccc12` [Example 7, 1-benzoyl-4-[(7-(furan-2-yl)-6-azaindol-3-yl)-oxoacetyl] piperazine]: the half-maximal effective concentration (EC50) was below 1 µM.
With `O=C(C(=O)N1CCN(C(=O)c2ccccc2)CC1)c1c[nH]c2c(-c3cc4ccccc4o3)nccc12` [Example 8, 1-benzoyl-4-[(7-(benzofuran-2-yl)-6-azaindol-3-yl)-oxoacetyl]piperazine], the EC50 is below 1 µM.
Same read-out and setting: then `C[C@@H]1CN(C(=O)c2ccccc2)CCN1C(=O)C(=O)c1c[nH]c2c(-c3cccs3)nccc12` [Example 9, 1-(benzoyl)-3-®-methyl-4-[(7-(thien-2-yl)-6-azaindol-3-yl)-oxoacetyl]piperazine], with below 1 µM; and `O=C(C(=O)N1CCN(C(=O)c2ccccc2)CC1)c1c[nH]c2c(-c3ccncc3)nccc12` [Example 10, 1-(benzoyl)-4-[(7-(pyridin-4-yl)-6-azaindol-3-yl)-oxoacetyl]piperazine], with below 1 µM; and `O=C(C(=O)N1CCN(C(=O)c2ccccc2)CC1)c1c[nH]c2c(-c3cccc4cccnc34)nccc12` [Example 11, 1-benzoyl-4-[(7-(quinolin-8-yl)-6-azaindol-3-yl)-oxoacetyl]piperazine], with below 1 µM.
Still for that read-out and setting: then `COc1cnc(-c2ccncc2)c2[nH]cc(C(=O)C(=O)N3CCN(C(=O)c4ccccc4)CC3)c12` [Example 14, 1-benzoyl-4-[(4-methoxy-7-(pyridin-4-yl)-6-azaindol-3-yl)-oxoacetyl]piperazine], with below 1 µM; and `COc1cnc(-c2cnc(C(=O)NC(C)(C)C)cn2)c2[nH]cc(C(=O)C(=O)N3CCN(C(=O)c4ccccc4)CC3)c12` [Example 15, 1-benzoyl-4-[(4-methoxy-7-(2-(1,1-dimethylethylaminocarbonyl)-pyrazin-5-yl)-6-azaindol-3-yl)-oxoacetyl]piperazine], with below 1 µM.
For the molecule `C[C@@H]1CN(C(=O)c2ccccc2)CCN1C(=O)C(=O)c1c[nH]c2c(-c3cncnc3)nccc12` [Example 16, 1-benzoyl-3-(R)-methyl-4-[(7-(pyrimidin-5-yl)-6-azaindol-3-yl)-oxoacetyl]piperazine], the 50% effective concentration (EC50) is below 1 µM.
The same measure, in the same setting: then `O=C(C(=O)N1CCN(C(=O)c2ccccc2)CC1)c1c[nH]c2c(-c3cncnc3)nccc12` [Example 17, 1-benzoyl-4-[(7-(pyrimidin-5-yl)-6-azaindol-3-yl)-oxoacetyl]piperazine], with below 1 µM; and `C[C@@H]1CN(C(=O)c2ccccc2)CCN1C(=O)C(=O)c1c[nH]c2c(-c3cccnc3)nccc12` [Example 18, 1-benzoyl-3-(R)-methyl-4-[(7-(pyridin-3-yl)-6-azaindol-3-yl)-oxoacetyl]piperazine], with below 1 µM.
On to `O=C(C(=O)N1CCN(C(=O)c2ccccc2)CC1)c1c[nH]c2c(-c3ccccn3)nccc12` [Example 19, 1-benzoyl-4-[(7-(pyridin-2-yl)-6-azaindol-3-yl)-oxoacetyl]piperazine], for which the EC50 is below 1 µM.
On the same count and under the same terms, then `C[C@@H]1CN(C(=O)c2ccccc2)CCN1C(=O)C(=O)c1c[nH]c2c(-c3nccs3)nccc12` [Example 20, 1-benzoyl-3-(R)-methyl-4-[(7-(thiazol-2-yl)-6-azaindol-3-yl)oxoacetyl]piperazine], with below 1 µM; and `O=C(C(=O)N1CCN(C(=O)c2ccccc2)CC1)c1c[nH]c2c(-c3nccs3)nccc12` [Example 21, 1-benzoyl-4-[(7-(thiazol-2-yl)-6-azaindol-3-yl)-oxoacetyl]piperazine], with below 1 µM; and `COc1cnc(-c2ccnnc2)c2[nH]cc(C(=O)C(=O)N3CCN(C(=O)c4ccccc4)CC3)c12` [Example 23, l-benzoyl-4-[(4-methoxy-7-(pyridazin-4-yl)-6-azaindol-3-yl)-oxoacetyl]piperazine], with below 1 µM.
The same measure, in the same setting: then `COc1cnc(-c2cnc(N)nc2)c2[nH]cc(C(=O)C(=O)N3CCN(C(=O)c4ccccc4)CC3)c12` [Example 24], with below 1 µM; and `COc1cnc(-c2cccnc2)c2[nH]cc(C(=O)C(=O)N3CCN(C(=O)c4ccccc4)CC3)c12` [Example 25, 1-benzoyl-4-[(4-methoxy-7-(pyridin-3-yl)-6-azaindol-3-yl)-oxoacetyl]piperazine], with below 1 µM.
The same measure, in the same setting: then `COc1cnc(-c2cnc(N)cn2)c2[nH]cc(C(=O)C(=O)N3CCN(C(=O)c4ccccc4)CC3)c12` [Example 26], with below 1 µM.
Consider `COc1cnc(-c2nccn2C)c2[nH]cc(C(=O)C(=O)N3CCN(C(=O)c4ccccc4)CC3)c12` [Example 27, 1-benzoyl-4-[(4-methoxy-7-(1-methyl-imidazol-2-yl)-6-azaindol-3-yl)-oxoacetyl]piperazine], for which the EC50 is below 1 µM.
The same measure, in the same setting: then `O=C(C(=O)N1CCN(C(=O)c2ccccc2)CC1)c1c[nH]c2c(-c3ccnnc3)ncc(F)c12` [Example 30, 1-benzoyl-4-[(4-fluoro-7-(pyridazin-4-yl)-6-azaindol-3-yl)-oxoacetyl]piperazine], with below 1 µM; and `COc1cnc(-c2cnccn2)c2[nH]cc(C(=O)C(=O)N3CCN(C(=O)c4ccccc4)CC3)c12` [Example 32, 1-benzoyl-4-[(4-methoxy-7-(pyrazin-2-yl)-6-azaindol-3-yl)-oxoacetyl]piperazine], with below 1 µM.
